# Reference: US20140357713A1, “ANTIMICROBIAL COMPOUNDS AND METHODS OF USE” (NexMed Holdings, Inc., priority 2012, published 2014)
# Experiments:
# [1] = tested on: Aspergillus niger (CMCC 98003); assay: Minimum inhibitory concentration (MIC) assay, Example 33; type: cell-based; conditions: for MIC: Table 19 summary
# Experimental: (§1) Thirty compounds were tested for antimicrobial activity using standard procedures and standard strains for both the minimum inhibitory concentration (MIC) assay and a time kill study. Both the MIC assay and the time kill study were performed according to Clinical and Laboratory Standards Institute (CLSI) guidelines. Three bacteria strains, Escherichia coli (ATCC 25922), Pseudomonas aeruginosa (ATCC 27853), Staphulococcus aureus (ATCC 29213), and two fungus strains, Candida albicans (ATCC 90029) and Aspergillus niger (CMCC 98003), were used in the experiments.
# (§2) Preparation of cultures. Before the experiment, two days for the bacteria strains and five days for fungus strains, an aliquot was removed from the cultures frozen at −80° C. Medium was added to the surface of an appropriate agar plate and streaked with the aliquot. The plate was incubated for 20 to 24 hrs at 35±2° C. for bacteria or for 5 days at 26-30° C. in incubator for fungus. From the resulting growth on each plate, one isolated colony of similar morphology was selected and re-streaked onto a fresh agar plate using a sterile disposable loop. The plate was incubated 20 to 24 hrs at 35±2° C. or for 5 days at 26-30° C. in an incubator.
# (§3) Preparation of Assay Plates with Medium and Drugs. On the day of the assay, CAMHB medium or RPMI 1640 medium was removed from 4′C storage and allowed to reach room temperature. Ninety microliters (μL) of room temperature CAMHB or RPMI 1640 (supplemented with the appropriate concentration of DMSO, if required) were added to rows B-G of each 96-well microtiter plate. Using a pipette, duplicate 180 μL aliquots of each drug stock solution were added to column 1 (e.g. A1 and B1 or C1 and D1 or E1 and F1 or G1 and H1). Using a multichannel pipette or the Provision 2000 liquid handler, serial 2-fold dilutions (90 μL) were performed in each row across the plate to row G. Eighty μL of compounds dilutions were transferred to a 96-deep well plate. Medium, 1,520 μL of CAMHB or RPMI 1640, was added to each well. The contents of the wells were mixed thoroughly. A 50 μL aliquot of each of the resulting mixtures was transferred to a 96-well assay plate.
# (§4) For Aspergillus niger, sporulating colonies were covered with RPMI 1640, and a suspension was prepared by gently probing the colonies with the tip of a transfer pipette. The suspension was transferred to a sterile tube and mixed with a vortex mixer for 15 seconds. The densities at 530 nm were adjusted to 0.09-0.13 for each sample. The resulting suspension was diluted 1:50 with the medium to obtain two times test inoculums. Fifty μL/well of this inoculum suspension was added to wells of drug-containing plates (1:2 dilution). Plates were incubated at 35° C. for the appropriate times. The MIC was read and recorded according to CLSI guidelines.
# (§5) The MIC values for thirty compounds against Escherichia coli, Pseudomonas aeruginosa, Staphulococcus aureus, Candida albicans, and Aspergillus niger were recorded and are presented in Table 3 and Table 4.
# [2] = tested on: Staphulococcus aureus (ATCC 29213); assay: as above; type: cell-based, Staphylococcus aureus; conditions: for MIC: Table 19 summary
# Experimental: as §1, §2, §3
# (§6) For bacteria, a sterile inoculating loop was used to transfer growth from an agar plate culture into about 5 mL of test medium. Using a turbidity meter, this inoculum was adjusted so that its density (600 nm) was equivalent to a 0.5 McFarland barium sulfate standard (0.08-0.13). The resulting suspension was diluted 1:100 into medium to obtain two times test inoculums.
# as §4, §5
# [3] = tested on: Staphylococcus aureus (ATCC 29213); assay: Time kill study, Example 33 (0 to 5 min); type: cell-based; conditions: 1×MIC
# Experimental: as §1
# (§7) The viable counts in Log10 CFU/mL at each time point were recorded.
# (§8) Time kill studies. Strain suspensions were prepared as described above for the MIC test, and strain suspensions and compound solutions were mixed in the same volume. Samples were removed at specified times including 0 min, 30 sec, 1 min and 5 mins, were diluted in the test medium and streaked on agar. Colonies were counted after 24 to 48 hrs of incubation. […]
# [4] = tested on: Pseudomonas aeruginosa (ATCC 27853); assay: Time kill study, Example 33 (0 to 5 min); type: cell-based; conditions: 1×MIC
# Experimental: as §1, §7, §8
# [5] = tested on: Escherichia coli (ATCC 25922); assay: Time kill study, Example 33 (0 to 5 min); type: cell-based; conditions: 1×MIC
# Experimental: as §1, §7, §8
# [6] = pH (Table 1); type: physicochemical
# [7] = tested on: Pseudomonas aeruginosa (ATCC 27853); assay: Minimum inhibitory concentration (MIC) assay, Example 33; type: cell-based; conditions: for MIC: Table 19 summary
# Experimental: as §1, §2, §3, §6, §4, §5
# [8] = tested on: Escherichia coli (ATCC 25922); assay: as above; type: cell-based; conditions: for MIC: Table 19 summary of Example 33 and Example 35
# Experimental: as §1, §2, §3, §6, §4, §5
# [9] = tested on: Candida albicans (ATCC 90029); assay: as above; type: cell-based; conditions: for MIC: Table 19 summary
# Experimental: as §1, §2, §3
# For Candida albicans, a sterile inoculating loop was used to transfer growth from an agar plate culture into a tube with RPMI1640 medium. This inoculum was adjusted so that its density at 530 nm was in the ranges from 0.08 to 0.13. The resulting suspension was diluted 1:50 and further diluted 1:20 with the medium to obtain two times test inoculums.
# as §4, §5
SMILES,MIC [1],MIC Aspergillus niger ([1]; n = 1),MIC Aspergillus niger ([1]; n = 2),MIC [2],MIC S. aureus ([2]; n = 1),MIC S. aureus ([2]; n = 2),"Viable counts, Staphylococcus aureus time kill study ([3]; 0.5 min)","Viable counts, Staphylococcus aureus time kill study ([3]; 1 min)","Viable counts, Staphylococcus aureus time kill study ([3]; 5 min)","Viable counts, Staphylococcus aureus time kill study ([3]; time 0)","Viable counts, Pseudomonas aeruginosa time kill study ([4]; 0.5 min)","Viable counts, Pseudomonas aeruginosa time kill study ([4]; 1 min)","Viable counts, Pseudomonas aeruginosa time kill study ([4]; 5 min)","Viable counts, Pseudomonas aeruginosa time kill study ([4]; time 0)","Viable counts, Escherichia coli time kill study ([5]; 0.5 min)","Viable counts, Escherichia coli time kill study ([5]; 1 min)","Viable counts, Escherichia coli time kill study ([5]; 5 min)","Viable counts, Escherichia coli time kill study ([5]; time 0)",pH [6],MIC [7],further results
"CCCCCCCCCCCCOC(=O)C(C)N(C)C.CCCCCCCCCCCCOC(=O)C(C)N(C)C.O=S(=O)(O)c1cccc2c(S(=O)(=O)O)cccc12 (stereo not shown) [Nex-32, Dodecyl 2-(dimethylamino)propanoate heminaphthalene-1,5-disulfonate]",>12500 µg/mL,>12500 µg/mL,>12500 µg/mL,1560 µg/mL,1560 µg/mL,1560 µg/mL,6.31 Log10 CFU/mL,6.23 Log10 CFU/mL,6.2 Log10 CFU/mL,6.25 Log10 CFU/mL,5.62 Log10 CFU/mL,4.48 Log10 CFU/mL,4.12 Log10 CFU/mL,5.73 Log10 CFU/mL,5.77 Log10 CFU/mL,4.7 Log10 CFU/mL,<3.52 Log10 CFU/mL,6.05 Log10 CFU/mL,3.87,6250 µg/mL,MIC P. aeruginosa ([7]; n = 1): 6250 µg/mL; MIC P. aeruginosa ([7]; n = 2): 6250 µg/mL; MIC [8]: 3130 µg/mL; MIC E. coli ([8]; n = 1): 3130 µg/mL; MIC E. coli ([8]; n = 2): 3130 µg/mL; MIC [9]: >12500 µg/mL; MIC Candida albicans ([9]; n = 1): >12500 µg/mL; MIC Candida albicans ([9]; n = 2): >12500 µg/mL
"CCCCCCCCCCCCOC(=O)C(C)N(C)C (stereo not shown) [Nex-46, Dodecyl 2-(dimethylamino)propanoate 2-hydroxyethanesulfonate]",>12500 µg/mL,>12500 µg/mL,>12500 µg/mL,3130 µg/mL,3130 µg/mL,3130 µg/mL,6.25 Log10 CFU/mL,6.21 Log10 CFU/mL,6.21 Log10 CFU/mL,6.26 Log10 CFU/mL,4.48 Log10 CFU/mL,3.7 Log10 CFU/mL,<3.52 Log10 CFU/mL,5.67 Log10 CFU/mL,5.74 Log10 CFU/mL,5.91 Log10 CFU/mL,3.97 Log10 CFU/mL,5.87 Log10 CFU/mL,2.95,6250 µg/mL,MIC P. aeruginosa ([7]; n = 1): 6250 µg/mL; MIC P. aeruginosa ([7]; n = 2): 6250 µg/mL; MIC [8]: 3130 µg/mL; MIC E. coli ([8]; n = 1): 3130 µg/mL; MIC E. coli ([8]; n = 2): 3130 µg/mL; MIC [9]: >12500 µg/mL; MIC Candida albicans ([9]; n = 1): >12500 µg/mL; MIC Candida albicans ([9]; n = 2): >12500 µg/mL
"CCCCCCCCCCCCOC(=O)[C@@H](C)N(C)C.Cl [Nex-56, D-Dodecyl 2-(dimethylamino)propanoate hydrochloride]",>12500 µg/mL,>12500 µg/mL,>12500 µg/mL,3130 µg/mL,3130 µg/mL,3130 µg/mL,6.27 Log10 CFU/mL,6.16 Log10 CFU/mL,5.9 Log10 CFU/mL,6.33 Log10 CFU/mL,<4.0 Log10 CFU/mL,<3.70 Log10 CFU/mL,<3.52 Log10 CFU/mL,5.56 Log10 CFU/mL,<4.0 Log10 CFU/mL,<3.70 Log10 CFU/mL,<3.52 Log10 CFU/mL,5.92 Log10 CFU/mL,1.70,6250 µg/mL,MIC P. aeruginosa ([7]; n = 1): 6250 µg/mL; MIC P. aeruginosa ([7]; n = 2): 6250 µg/mL; MIC [8]: 3130 µg/mL; MIC E. coli ([8]; n = 1): 3130 µg/mL; MIC E. coli ([8]; n = 2): 3130 µg/mL; MIC [9]: >12500 µg/mL; MIC Candida albicans ([9]; n = 1): >12500 µg/mL; MIC Candida albicans ([9]; n = 2): >12500 µg/mL
"CCCCCCCCCCCCOC(=O)[C@H](C)N(C)C.Cl [Nex-57, L-Dodecyl 2-(dimethylamino)propanoate hydrochloride]",>12500 µg/mL,>12500 µg/mL,>12500 µg/mL,3130 µg/mL,3130 µg/mL,3130 µg/mL,6.17 Log10 CFU/mL,6.19 Log10 CFU/mL,5.92 Log10 CFU/mL,6.29 Log10 CFU/mL,<4.0 Log10 CFU/mL,<3.70 Log10 CFU/mL,<3.52 Log10 CFU/mL,5.45 Log10 CFU/mL,<4.0 Log10 CFU/mL,<3.70 Log10 CFU/mL,<3.52 Log10 CFU/mL,5.78 Log10 CFU/mL,1.57,6250 µg/mL,MIC P. aeruginosa ([7]; n = 1): 6250 µg/mL; MIC P. aeruginosa ([7]; n = 2): 6250 µg/mL; MIC [8]: 3130 µg/mL; MIC E. coli ([8]; n = 1): 3130 µg/mL; MIC E. coli ([8]; n = 2): 3130 µg/mL; MIC [9]: >12500 µg/mL; MIC Candida albicans ([9]; n = 1): >12500 µg/mL; MIC Candida albicans ([9]; n = 2): >12500 µg/mL
